Measured values: patent US20240041042A1, “1-(PYRIDYL)-5-AZINYLPYRAZOLE DERIVATIVES, AND THEIR USE FOR CONTROL OF UNDESIRED PLANT GROWTH” (Bayer Aktiengesellschaft, priority 2020, published 2024)
Where two headings read alike, the source gives them in different places.

Tests used:
Assay type in all cases: in vivo
[1] = tested on: Echinochloa crus-galli (ECHCG); assay: Post-emergence herbicidal action against ECHCG
Outline: (§1)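 Doses of 320 g/ha or lower, suffixes a, b and c marking different dosages, were applied post-emergence at the one-leaf stage in 600 l/ha water with 0.5% additive. Damage was assessed visually after about 3 weeks in the greenhouse.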

Avena fatua (AVEFA) [2] = assay: Post-emergence herbicidal action against AVEFA; details: visual rating about 3 weeks after treatment
Outline: as §1

[3] = tested on: Pharbitis purpurea (PHBPU); assay: Post-emergence herbicidal action against PHBPU
Outline: as §1

[4] = tested on: Pharbitis purpurea (PHBPU); assay: Pre-emergence herbicidal action against PHBPU; details: dosage 320 g/ha
Outline: (§2)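 Application rates ran to 320 g/ha or lower, with several dosages tested on the same weeds. The compound, as wettable powder or emulsion concentrate, is sprayed pre-emergence onto soil over sown seeds; greenhouse growth follows, and effect is rated visually after roughly 3 weeks.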

[5] = tested on: Amaranthus retroflexus (AMARE); assay: Pre-emergence herbicidal action against AMARE; details: visual scoring after about 3 weeks vs untreated controls
Outline: as §2

[6] = tested on: Matricaria inodora (MATIN); assay: Post-emergence herbicidal action against MATIN
Experimental: Seeds of monocotyledonous and dicotyledonous weeds and crop plants are placed in sandy loam in plastic or organic planting pots, covered with soil and cultivated in a greenhouse under controlled growth conditions. 2 to 3 weeks after sowing, the test plants are treated at the one-leaf stage. The compounds of the invention, formulated in the form of wettable powders (WP) or as emulsion concentrates (EC), are then sprayed onto the green parts of the plants as aqueous suspension or emulsion with addition of 0.5% additive at a water application rate of 600 l/ha (converted). After the test plants have been kept in the greenhouse under optimum growth conditions for about 3 weeks, the activity of the preparations is rated visually in comparison to untreated controls. For example, 100% activity=the plants have died, 0% activity=like control plants.
Tables B1 to B13 below show the effects of selected compounds of the general formula (I) according to Table 1 on various harmful plants and at an application rate corresponding to 320 g/ha or lower, which were obtained by the experimental procedure mentioned above. The appendices “a”, “b” and “c” give differentiation by dosage used with otherwise the same harmful plants tested.

[7] = tested on: Verconica persica (VERPE); assay: Post-emergence herbicidal action against VERPE
Outline: as §1

[8] = tested on: Amaranthus retroflexus (AMARE); assay: Post-emergence herbicidal action against AMARE
Outline: as §1

Avena fatua (AVEFA) [9] = assay: Pre-emergence herbicidal action against AVEFA; details: visual scoring after about 3 weeks vs untreated controls
Outline: as §2

[10] = tested on: Matricaria inodora (MATIN); assay: Pre-emergence herbicidal action against MATIN; details: dosage 320 g/ha
Outline: as §2

[11] = tested on: Polygonum convolvulus (POLCO); assay: Pre-emergence herbicidal action against POLCO
Outline: as §2

Viola tricolor (VIOTR) [12] = assay: Post-emergence herbicidal action against VIOTR; details: 320 g/ha
Outline: as §1

Setaria viridis (SETVI) [13] = assay: Post-emergence herbicidal action against SETVI
Outline: as §1

[14] = tested on: Echinochloa crus-galli (ECHCG); assay: Pre-emergence herbicidal action against ECHCG; details: dosage 320 g/ha
Outline: as §2

Viola tricolor (VIOTR) [15] = assay: Pre-emergence herbicidal action against VIOTR; details: 320 g/ha, Viola tricolor
Outline: as §2

Setaria viridis (SETVI) [16] = assay: Pre-emergence herbicidal action against SETVI
Outline: as §2

Oryza sativa (ORYSA) = details: crop plant compatibility
Outline: (§3)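 Greenhouse crops in sandy loam sprayed post-emergence at the one-leaf stage, 2–3 weeks after sowing, with WP or EC formulations in water plus 0.5% additive at 600 l/ha. Damage rated visually about 3 weeks later versus untreated controls (0% = like control, 100% = dead); suffixes a–c denote different doses.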

Lolium rigidum (LOLRI) [17] = assay: Pre-emergence herbicidal action against LOLRI
Outline: as §2

Lolium rigidum (LOLRI) [18] = assay: Post-emergence herbicidal action against LOLRI; details: dosage 320 g/ha
Outline: as §1

[19] = tested on: Alopecurus myosuroides (ALOMY); assay: Pre-emergence herbicidal action against ALOMY; details: scored visually after about 3 weeks, 100% = plants have died
Outline: as §2

[20] = tested on: Verconica persica (VERPE); assay: Pre-emergence herbicidal action against VERPE
Outline: as §2

[21] = tested on: Alopecurus myosuroides (ALOMY); assay: Post-emergence herbicidal action against ALOMY; details: visual rating about 3 weeks after treatment vs untreated controls (100% = plants have died, 0% = like control plants)
Outline: as §1

Zea mays (ZEAMX) = details: 20 g/ha, ZEAMX, effect in comparison to untreated controls
Outline: as §3

[22] = 80 g/ha, visual rating about 3 weeks after treatment vs untreated controls (100% = plants have died, 0% = like control plants)

SMILES: C=C(COC(=O)COc1nn(-c2ccccn2)c(-c2ccc(F)nc2)c1Br)C(=O)OC [Example I-370]
- Post-emergence action against ECHCG in % ([1]; dosage 80 g/ha): 80%
- Post-emergence action against ECHCG in % ([1]; dosage 320 g/ha): 80%
- Post-emergence action against AVEFA in % (Avena fatua (AVEFA) [2]; 320 g/ha): 90%
- Post-emergence action against PHBPU in % ([3]; dosage 80 g/ha): 80%
- Post-emergence action against PHBPU in % ([3]; dosage 320 g/ha): 90%
- Pre-emergence action against PHBPU in % [4]: 90%
- Pre-emergence action against AMARE in % ([5]; 80 g/ha): 100%
- Pre-emergence action against AMARE in % ([5]; 320 g/ha): 100%
- Post-emergence action against MATIN in % ([6]; dosage 80 g/ha): 80%
- Post-emergence action against MATIN in % ([6]; dosage 320 g/ha): 80%
- Post-emergence action against VERPE in % ([7]; 320 g/ha, VERPE): 90%
- Post-emergence action against VERPE in % ([7]; dosage 80 g/ha): 90%
- Post-emergence action against AMARE in % [8, 22]: 80%
- Post-emergence action against AMARE in % ([8]; 320 g/ha, visual rating about 3 weeks after treatment): 80%
- Pre-emergence action against AVEFA in % (Avena fatua (AVEFA) [9]; 80 g/ha): 90%
- Pre-emergence action against AVEFA in % (Avena fatua (AVEFA) [9]; 320 g/ha): 90%
- Pre-emergence action against MATIN in % [10]: 100%
- Pre-emergence action against POLCO in % ([11]; dosage 80 g/ha): 80%
- Pre-emergence action against POLCO in % ([11]; dosage 320 g/ha): 100%
- Post-emergence action against VIOTR in % (Viola tricolor (VIOTR) [12]): 80%
- Post-emergence action against SETVI in % (Setaria viridis (SETVI) [13]; dosage 80 g/ha): 80%
- Post-emergence action against SETVI in % (Setaria viridis (SETVI) [13]; dosage 320 g/ha): 80%
- Pre-emergence action against ECHCG in % [14]: 100%
- Pre-emergence action against VIOTR in % (Viola tricolor (VIOTR) [15]): 100%
- Pre-emergence action against SETVI in % (Setaria viridis (SETVI) [16]; dosage 80 g/ha): 100%
- Pre-emergence action against SETVI in % (Setaria viridis (SETVI) [16]; dosage 320 g/ha): 100%
- Post-emergence action against ORYSA in % (Oryza sativa (ORYSA); 80 g/ha, effect in comparison to untreated controls): 0%
- Pre-emergence action against LOLRI in % (Lolium rigidum (LOLRI) [17]; dosage 80 g/ha): 90%
- Pre-emergence action against LOLRI in % (Lolium rigidum (LOLRI) [17]; dosage 320 g/ha): 100%
- Post-emergence action against LOLRI in % (Lolium rigidum (LOLRI) [18]): 90%
- Pre-emergence action against ALOMY ([19]; 80 g/ha): 80%
- Pre-emergence action against ALOMY ([19]; 320 g/ha): 100%
- Pre-emergence action against VERPE in % ([20]; dosage 80 g/ha): 90%
- Pre-emergence action against VERPE in % ([20]; dosage 320 g/ha): 100%
- Post-emergence action against ALOMY in % ([21]; 80 g/ha): 100%
- Post-emergence action against ALOMY in % ([21]; 320 g/ha): 100%

SMILES: O=C(O)COc1nn(-c2ccccn2)c(-c2ccc(F)nc2)c1Cl [Example I-98]
- Post-emergence action against ECHCG in % ([1]; dosage 80 g/ha): 80%
- Post-emergence action against AVEFA in % (Avena fatua (AVEFA) [2]; 80 g/ha): 80%
- Pre-emergence action against PHBPU in % [4]: 90%
- Pre-emergence action against AMARE in % ([5]; 80 g/ha): 100%
- Pre-emergence action against AMARE in % ([5]; 320 g/ha): 100%
- Post-emergence action against MATIN in % ([6]; dosage 80 g/ha): 80%
- Post-emergence action against VERPE in % ([7]; dosage 80 g/ha): 80%
- Post-emergence action against AMARE in % [8, 22]: 80%
- Pre-emergence action against AVEFA in % (Avena fatua (AVEFA) [9]; 320 g/ha): 80%
- Pre-emergence action against MATIN in % [10]: 90%
- Pre-emergence action against POLCO in % ([11]; dosage 320 g/ha): 90%
- Pre-emergence action against ECHCG in % [14]: 100%
- Pre-emergence action against VIOTR in % (Viola tricolor (VIOTR) [15]): 100%
- Pre-emergence action against SETVI in % (Setaria viridis (SETVI) [16]; dosage 320 g/ha): 100%
- Post-emergence action against ORYSA in % (Oryza sativa (ORYSA); 20 g/ha, effect vs untreated controls): 10%
- Post-emergence action against ZEAMX in % (crop plant compatibility) (Zea mays (ZEAMX)): 10%
- Pre-emergence action against LOLRI in % (Lolium rigidum (LOLRI) [17]; dosage 320 g/ha): 100%
- Pre-emergence action against ALOMY ([19]; 80 g/ha): 90%
- Pre-emergence action against ALOMY ([19]; 320 g/ha): 100%
- Pre-emergence action against VERPE in % ([20]; dosage 320 g/ha): 100%
- Post-emergence action against ALOMY in % ([21]; 80 g/ha): 90%
